From ChEMBL document CHEMBL1141189, “Preparation and biological evaluation of indole, benzimidazole, and thienopyrrole piperazine carboxamides: potent human histamine h(4) antagonists” (J Med Chem, 2005)

Columns and labels:
Histamine H3 receptor = Histamine H3 receptor (Homo sapiens, UniProt Q9Y5N1); test: Binding affinity to histamine H3 receptor
Histamine H4 receptor [1] = target: T1, Histamine H4 receptor (Homo sapiens, UniProt Q9H3N8); test: Displacement of [3H]histamine from recombinant human histamine H4 receptor in SK-N-MC cells; assay type: cell-based
Histamine H4 receptor [2] = target: T1, Histamine H4 receptor; test: Antagonistic activity at human histamine H4 receptor in SK-N-MC cells by inhibition of forskolin-stimulated cAMP-mediated reporter gene activity; assay type: functional, cell-based; conditions: for Kb: read-out: pA2 (converted)
[3] = In vitro half life in human S9 fraction; assay type: ADME, Liver
[4] = In vitro half life in rat liver microsomes; assay type: ADME, Microsome
[5] = In vitro half life in rat S9 fraction; assay type: ADME, Liver
Rattus norvegicus [6] = test: Maximum concentration in rat administered with 10 mg/kg, po; assay type: ADME, organism-based; set-up: dose 10 mg/kg, route oral; conditions: in vivo
[7] = Half life in rat administered with 10 mg/kg, po; assay type: ADME, organism-based; set-up: dose 10 mg/kg, route oral; conditions: in vivo
Rattus norvegicus [8] = test: Area under curve in rat administered with 10 mg/kg, po; assay type: ADME, organism-based; set-up: dose 10 mg/kg, route oral; conditions: in vivo
[9] = Oral bioavailability in rat administered with 10 mg/kg, po; assay type: ADME, organism-based; conditions: in vivo
[10] = In vitro half life in human liver microsomes; assay type: ADME, Microsome
[11] = Half life in rat administered with 2 mg/kg, iv; assay type: ADME, organism-based; set-up: dose 2 mg/kg, route intravenous; conditions: in vivo

T1 sequence (Q9H3N8 whole entry): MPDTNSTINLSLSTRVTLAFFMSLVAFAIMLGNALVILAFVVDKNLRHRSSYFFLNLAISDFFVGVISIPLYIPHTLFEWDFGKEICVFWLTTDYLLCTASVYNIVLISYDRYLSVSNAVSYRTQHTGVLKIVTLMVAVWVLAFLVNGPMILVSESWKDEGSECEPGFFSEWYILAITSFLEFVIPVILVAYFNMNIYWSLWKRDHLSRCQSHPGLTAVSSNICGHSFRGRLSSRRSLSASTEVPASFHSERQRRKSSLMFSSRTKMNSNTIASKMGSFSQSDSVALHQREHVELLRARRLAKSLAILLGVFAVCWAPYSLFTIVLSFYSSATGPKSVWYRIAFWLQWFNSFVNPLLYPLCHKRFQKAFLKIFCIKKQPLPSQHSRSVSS
Histamine H3 receptor, sequence (Q9Y5N1 whole entry): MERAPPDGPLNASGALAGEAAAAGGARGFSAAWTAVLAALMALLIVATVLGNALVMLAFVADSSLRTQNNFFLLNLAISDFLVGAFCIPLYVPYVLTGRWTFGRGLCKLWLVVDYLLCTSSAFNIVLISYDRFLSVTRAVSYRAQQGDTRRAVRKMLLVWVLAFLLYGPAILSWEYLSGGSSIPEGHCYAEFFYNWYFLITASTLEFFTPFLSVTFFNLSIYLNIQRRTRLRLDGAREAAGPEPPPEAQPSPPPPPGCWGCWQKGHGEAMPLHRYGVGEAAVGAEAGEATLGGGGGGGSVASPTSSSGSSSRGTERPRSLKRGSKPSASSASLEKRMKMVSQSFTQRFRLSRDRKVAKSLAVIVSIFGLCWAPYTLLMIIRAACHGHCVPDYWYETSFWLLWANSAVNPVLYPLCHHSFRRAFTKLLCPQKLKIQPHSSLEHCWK

SMILES	Ki (Histamine H4 receptor [1]) [nM]	Kb (Histamine H4 receptor [2]) [nM]	also measured
O=C(c1cc2ccccc2[nH]1)N1CCNCC1			Ki (Histamine H3 receptor): 9000 nM
Cc1cc(Cl)c2[nH]c(C(=O)N3CCN(C)CC3)cc2c1	33	50.1	
Cc1cc(C)c2[nH]c(C(=O)N3CCN(C)CC3)cc2c1		31.6	
Cc1c(F)ccc2[nH]c(C(=O)N3CCN(C)CC3)cc12	27	20	
CN1CCN(C(=O)c2cc3cc(Cl)ccc3[nH]2)CC1 [JNJ-7777120]			half-life [3]: 1.67 h; half-life [4]: 0.075 h; half-life [5]: 1.07 h; Cmax (Rattus norvegicus [6]): 1800 nM; half-life [7]: 2.3 h; AUC (Rattus norvegicus [8]): 7 uM.h/L; bioavailability [9]: 22%; half-life [10]: 0.467 h
Cc1c(Cl)sc2cc(C(=O)N3CCN(C)CC3)[nH]c12		20	
CN1CCN(C(=O)c2nc3ccccc3[nH]2)CC1	35	63.1	
CN1CCN(C(=O)c2cc3c(Cl)c(Cl)ccc3[nH]2)CC1		6.31	
Cc1csc2cc(C(=O)N3CCN(C)CC3)[nH]c12		31.6	
CN1CCN(C(=O)c2cc3ccsc3[nH]2)CC1	90		
CN1CCN(C(=O)c2cc3cc(Cl)sc3[nH]2)CC1		12.6	half-life [5]: 0.783 h; Cmax (Rattus norvegicus [6]): < 100 nM; half-life [11]: 6 min; half-life [10]: 0.883 h
CN1CCN(C(=O)c2cc3cccc(Br)c3[nH]2)CC1		126	
CN1CCN(C(=O)c2cc3cc(Cl)cc(Cl)c3[nH]2)CC1		10	
CN1CCN(C(=O)c2nc3cc(C(F)(F)F)ccc3[nH]2)CC1	427		
Cc1cccc2cc(C(=O)N3CCN(C)CC3)[nH]c12			pA2 (Histamine H4 receptor [2]): 7.9
CN1CCN(C(=O)c2nc3c(N)cccc3[nH]2)CC1	244		
CN1CCN(C(=O)c2nc3cc(Cl)cc(Cl)c3[nH]2)CC1	136		

SMILES	Ki (Histamine H4 receptor [1]) [nM]	Kb (Histamine H4 receptor [2]) [nM]	also measured
CN1CCN(C(=O)c2nc3cc(Cl)ccc3[nH]2)CC1	26	20	half-life [3]: 1.67 h; half-life [4]: 0.2 h; half-life [5]: 1.47 h; Cmax (Rattus norvegicus [6]): 1800 nM; half-life [7]: 1 h; AUC (Rattus norvegicus [8]): 2.1 uM.h/L; bioavailability [9]: 27%; Ki (Histamine H3 receptor): 14100 nM; half-life [10]: 1.67 h
CN1CCN(C(=O)c2cc3c(Br)cccc3[nH]2)CC1		158	
Cc1ccc2[nH]c(C(=O)N3CCN(C)CC3)cc2c1		20	
Cc1cccc2[nH]c(C(=O)N3CCN(C)CC3)nc12	30	25.1	
CN1CCN(C(=O)c2cc3sccc3[nH]2)CC1	90		
Cc1c(F)ccc2[nH]c(C(=O)N3CCN(C)CC3)nc12	7	15.8	
CN1CCN(C(=O)c2cc3cccc(Cl)c3[nH]2)CC1		79.4	
CN1CCN(C(=O)c2cc3cc(F)cc(F)c3[nH]2)CC1		20	
CN1CCN(C(=O)c2cc3cc(F)ccc3[nH]2)CC1		20	
CN1CCN(C(=O)c2cc3cc(O)ccc3[nH]2)CC1		79.4	
CN1CCN(C(=O)c2cc3cccc(N)c3[nH]2)CC1		7.94	
CN1CCN(C(=O)c2nc3c(F)c(F)ccc3[nH]2)CC1	49	79.4	
CN1CCN(C(=O)c2cc3sc(Cl)cc3[nH]2)CC1		50.1	
CN1CCN(C(=O)c2cc3cc(C(F)(F)F)ccc3[nH]2)CC1	412		
Cc1cc(Cl)c2nc(C(=O)N3CCN(C)CC3)[nH]c2c1	23	126	
CN1CCN(C(=O)c2nc3cc(F)ccc3[nH]2)CC1	19	50.1	
CN1CCN(C(=O)c2cc3cc(Br)ccc3[nH]2)CC1		15.8	
